# From patent US20230240290A1, “USE OF (Z)-3-HEXENYL ESTERS AND METHOD FOR PROTECTING PLANTS AGAINST PESTS” (UNIVERSITAT POLITÈCNICA DE VALÈNCIA, priority 2020, published 2023)
# What was measured:
# [1] = test system: NPR1 (salicylic acid pathway); experiment: Transcriptional response of NPR1 in Carrizo citrange plants exposed to the volatile; format: in vivo; settings: intact Carrizo citrange plants exposed 24 h; n=6
# [2] = test system: PIN2 (marker gene for the jasmonic acid signaling pathway); experiment: Semi-field release assay, transcriptional response of PIN2 in tomato plants; format: in vivo; settings: 4 weeks
# Experimental: Two different types of polymeric emitters were used to test the activation level that different emission levels of (Z)-3-hexenyl propionate can provide: 4-mL low-density (LD) polyethylene vial and 4-mL high-density (HD) polyethylene vial. The highest emission level (5 mg/day) was achieved through previous laboratory studies with LD dispensers loaded with 20 mg of the pure substance. The lowest emission level (0.01 mg/day) was provided by HD vials loaded with a 1:100 mixture of (Z)-3-hexenyl propionate and paraffinic oil (0.02:2; g:g). The emission kinetics of the emitters used during the experiments was controlled by studying weight loss (gravimetric method). […] The difference in weight recorded in each period will be the emitted quantity of the substance for each type of dispenser. To obtain the mean emission level of each dispenser, the recorded weights (y) are related to the aging time (x) using a multiple regression analysis.
# Once the mentioned emission levels have been established, 5 and 0.01 mg/day/dispenser, tomato plants were exposed to the different emission levels through an experiment under semi-field conditions in a glass greenhouse. […] Environmental conditions were monitored and recorded using a Mithra clima data logger (ver. 1.01.03, Priva nutricontrol Ibérica S.L). […]
# [3] = test system: PR1 (marker gene for the SA signaling pathway); experiment: Field (commercial greenhouse) assay, transcriptional response of PR1 in tomato plants; format: in vivo, tomato cv Raf; settings: LD dispenser every 20 m2, at 30 and 60 days
# Experimental: To know the behavior of the dispensers loaded with (Z)-3-hexenyl propionate under real cultivation conditions, four commercial greenhouses for tomato cv Raf located in Xilxes (Castellón province), with a history of problems with T. absoluta contamination at the end of winter, were selected. An experimental design of randomized blocks was carried out where each greenhouse was considered a block with two treatments per block and 4 repetitions per treatment. […]
# Twenty plants randomly chosen by repetition were sampled weekly for 11 weeks, beginning 30 Jan. […] First, the number of leaflets infested by T. absoluta per plant was counted. Then the number of N. tenuis (adults and nymphs) throughout the apical third of each plant (leaves, flowers and shoots) was counted. Following the methodology described above, 6 samples were taken from the apical part of each plant per repetition, and these samples were immediately introduced into liquid nitrogen to quantify the expression of the PR1 and PIN2 genes (described in Example 1 and Example 2). The expression of these genes was quantified one day before, 4, and 8 weeks after hanging the dispensers in the greenhouses.
smiles,measurement,setting,value
CC/C=C\CCOC(=O)CC [(Z)-3-hexenyl propanoate],Transcriptional response of NPR1 compared to control,[1],significantly overexpressed
same,Transcriptional response of PIN2 (jasmonic acid pathway),"[2]; 0.01 mg/day emission, HD polyethylene vial",did not affect exposed plants
same,Transcriptional response of PIN2 (jasmonic acid pathway),"[2]; 5 mg/day emission, LD polyethylene vial",significantly activated
same,Expression of PR1 compared to plants in the control zone,[3],significantly higher
